Experimental data reported in patent US20240217957A1, “HETEROCYCLIC COMPOUND AND USE THEREOF” (TAKEDA PHARMACEUTICAL COMPANY LIMITED, priority 2022, published 2024).

Target: T1, human OX2 receptor (Homo sapiens, UniProt O43614)
T1 construct: expressed in transfected cells
T1 sequence (O43614 1-444): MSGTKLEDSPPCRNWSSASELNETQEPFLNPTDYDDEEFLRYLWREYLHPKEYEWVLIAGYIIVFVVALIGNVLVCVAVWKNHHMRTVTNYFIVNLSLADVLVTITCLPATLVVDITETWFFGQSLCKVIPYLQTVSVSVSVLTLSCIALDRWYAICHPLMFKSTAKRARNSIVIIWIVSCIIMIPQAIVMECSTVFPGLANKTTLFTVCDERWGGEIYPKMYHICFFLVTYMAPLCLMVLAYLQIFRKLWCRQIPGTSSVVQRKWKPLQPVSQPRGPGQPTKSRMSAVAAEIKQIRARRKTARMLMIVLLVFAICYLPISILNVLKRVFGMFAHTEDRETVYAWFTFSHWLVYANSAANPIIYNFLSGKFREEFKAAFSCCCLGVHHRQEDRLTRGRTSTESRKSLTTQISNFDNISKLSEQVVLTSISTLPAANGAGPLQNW
Experiment: Measurement of orexin type 2 receptor agonist activity (calcium fluorescence, Fluo-4 AM, FDSS)
Assay type: cell-based
Conditions: compound at 3 μM; CHO cells forcibly expressing human OX2 receptor; DMSO = 0%, 10 nM orexin A (human) = 100%
Method: In order to obtain cell clones that stably express human orexin type 2 receptor, human orexin type 2 (residues 1-444, NCBI Reference Sequence: AK314279) was constructed in a pcDNA3.1 (+) vector (Invitrogen) to express in mammalian cells. This plasmid DNA was transfected into CHO-K1 cells by electroporation, and stable clones were obtained by limiting dilution using resistance to G418 as a selection marker.
CHO cells in which human OX2 receptor was forcibly expressed were seeded at 10,000 cells/well into a 384-well black transparent bottom plate (BD falcon), and were incubated at 37° C., 5% CO2 for 1 day after incubation at room temperature for 30 minutes. After removing the cell plate medium, assay buffer containing calcium indicator A (HBSS (Thermo Fisher Scientific), 20 mM HEPES (Thermo Fisher Scientific), 0.1% BSA (Sigma-Aldrich), 2.5 μg/mL Fluo-4 AM (Dojin Kagaku), 0.08% Pluronic F127 (Dojin Kagaku), 1.25 mM probenecid (Dojin Kagaku)) was added at 30 μL/well. After incubation in a 5% CO2 incubator at 37° C. for 30 minutes, it was incubated at room temperature for another 30 minutes. Add 10 μL/well of the test compound diluted with assay buffer B (HBSS, 20 mM HEPES, 0.1% BSA), and use FDSS uCELL (Hamamatsu Photonics) to measure the fluorescence value every 1 second for 1 minute, and then every 2 seconds for […]. It was measured for 1 minute and 40 seconds. The amount of fluorescence value when DMSO is added instead of the test compound is defined as 0%, and the amount of fluorescence value when orexin A (human) (Peptide Institute) with a final concentration of 10 nM is added is defined as 100%. The activity (%) of the test compound was calculated.

SMILES	OX2R agonist activity (3 μM, %) [%]
Cc1cnc([C@@H]2CC(N3C[C@@H](NS(C)(=O)=O)[C@@](C)(F)C3)=NO2)c(-c2c(F)cccc2F)c1 (mixture of isomers) [Example 51, mixture of N-[(3R,4S)-1-{(5S)-5-[3-(2,6-difluorophenyl)-5-methylpyridin-2-yl]-4,5-dihydro-1,2-oxazol-3-yl}-4-fluoro-4-methylpyrrolidin-3-yl]methanesulfonamide and N-[(3S,4R)-1-{(5S)-5-[3-(2,6-difluorophenyl)-5-methylpyridin-2-yl]-4,5-dihydro-1,2-oxazol-3-yl}-4-fluoro-4-methylpyrrolidin-3-yl]methanesulfonamide]	99
Cc1cnc([C@@H]2CC(O[C@@H]3CC[C@H](NS(C)(=O)=O)C3)=NO2)c(-c2c(F)cc(F)cc2F)c1 (mixture of isomers) [Example 62, mixture of N-[(1R,3S)-3-({(5S)-5-[5-methyl-3-(2,4,6-trifluorophenyl)pyridin-2-yl]-4,5-dihydro-1,2-oxazol-3-yl}oxy)cyclopentyl]methanesulfonamide and N-[(1S,3R)-3-({(5S)-5-[5-methyl-3-(2,4,6-trifluorophenyl)pyridin-2-yl]-4,5-dihydro-1,2-oxazol-3-yl}oxy)cyclopentyl]methanesulfonamide]	17
Cc1cnc([C@@H]2CC(N3C[C@@H](C)[C@H](NS(C)(=O)=O)C3)=NO2)c(-c2c(F)cccc2F)c1 (single isomer, unassigned) [Example 71, optical isomer of N-[(3S,4R)-1-{(5S)-5-[3-(2,6-difluorophenyl)-5-methylpyridin-2-yl]-4,5-dihydro-1,2-oxazol-3-yl}-4-methylpyrrolidin-3-yl]methanesulfonamide or N-[(3R,4S)-1-{(5S)-5-[3-(2,6-difluorophenyl)-5-methylpyridin-2-yl]-4,5-dihydro-1,2-oxazol-3-yl}-4-methylpyrrolidin-3-yl]methanesulfonamide]	108
Cc1cnc([C@@H]2CC(N3C[C@@H](NS(C)(=O)=O)[C@@](C)(F)C3)=NO2)c(-c2c(F)cc(F)cc2F)c1 (single isomer, unassigned) [Example 75, optical isomer of N-[(3R,4S)-4-fluoro-4-methyl-1-{(5S)-5-[5-methyl-3-(2,4,6-trifluorophenyl)pyridin-2-yl]-4,5-dihydro-1,2-oxazol-3-yl}pyrrolidin-3-yl]methanesulfonamide or N-[(3S,4R)-4-fluoro-4-methyl-1-{(5S)-5-[5-methyl-3-(2,4,6-trifluorophenyl)pyridin-2-yl]-4,5-dihydro-1,2-oxazol-3-yl}pyrrolidin-3-yl]methanesulfonamide]	105
Cc1cnc([C@@H]2CC(N3C[C@H](F)[C@H](NS(=O)(=O)C4(F)CC4)C3)=NO2)c(-c2c(F)cc(F)cc2F)c1 (single isomer, unassigned) [Example 107, optical isomer of 1-fluoro-N-[(3R,4S)-4-fluoro-1-{(5S)-5-[5-methyl-3-(2,4,6-trifluorophenyl)pyridin-2-yl]-4,5-dihydro-1,2-oxazol-3-yl}pyrrolidin-3-yl]cyclopropane-1-sulfonamide or 1-fluoro-N-[(3S,4R)-4-fluoro-1-{(5S)-5-[5-methyl-3-(2,4,6-trifluorophenyl)pyridin-2-yl]-4,5-dihydro-1,2-oxazol-3-yl}pyrrolidin-3-yl]cyclopropane-1-sulfonamide]	98
Cc1cnc([C@@H]2CC(N3C[C@H](F)[C@H](NS(=O)(=O)C4(F)CC4)C3)=NO2)c(-c2c(F)cccc2F)c1 (single isomer, unassigned) [Example 117, optical isomer of N-[(3R,4S)-1-{(5S)-5-[3-(2,6-difluorophenyl)-5-methylpyridin-2-yl]-4,5-dihydro-1,2-oxazol-3-yl}-4-fluoropyrrolidin-3-yl]-1-fluorocyclopropane-1-sulfonamide or N-[(3S,4R)-1-{(5S)-5-[3-(2,6-difluorophenyl)-5-methylpyridin-2-yl]-4,5-dihydro-1,2-oxazol-3-yl}-4-fluoropyrrolidin-3-yl]-1-fluorocyclopropane-1-sulfonamide]	105
C[C@]1(F)CN(C2=NOC(c3c(F)cccc3-c3c(F)cccc3F)C2)C[C@H]1NS(C)(=O)=O (single isomer, unassigned) [Example 155, N-{(3R,4S)-4-fluoro-4-methyl-1-[5-(2′,3,6′-trifluoro[1,1′-biphenyl]-2-yl)-4,5-dihydro-1,2-oxazol-3-yl]pyrrolidin-3-yl}methanesulfonamide or N-{(3S,4R)-4-fluoro-4-methyl-1-[5-(2′,3,6′-trifluoro[1,1′-biphenyl]-2-yl)-4,5-dihydro-1,2-oxazol-3-yl]pyrrolidin-3-yl)methanesulfonamide]	99
C[C@]1(F)CN(C2=NOC(c3c(F)cc(F)cc3-c3c(F)cccc3F)C2)C[C@H]1NS(C)(=O)=O (single isomer, unassigned) [Example 164]	97
C[C@]1(F)CN(C2=NOC(c3c(F)ccc(F)c3-c3c(F)cccc3F)C2)C[C@H]1NS(C)(=O)=O (single isomer, unassigned) [Example 168]	103
CS(=O)(=O)N[C@H]1CCN(C2=NOC(c3ccccc3-c3c(F)cccc3F)C2)C1 (stereo partly drawn) [Example 1, N-{(3S)-1-[5-(2′,6′-difluoro[1,1′-biphenyl]-2-yl)-4,5-dihydro-1,2-oxazol-3-yl]pyrrolidin-3-yl}methanesulfonamide]	103
CS(=O)(=O)N[C@H]1CCN(C2=NOC(c3ccccc3C3=CCCCC3)C2)C1 (stereo partly drawn) [Example 2, N-{(3S)-1-[5-(2′,3′,4′,5′-tetrahydro[1,1′-biphenyl]-2-yl)-4,5-dihydro-1,2-oxazol-3-yl]pyrrolidin-3-yl}methanesulfonamide]	77
CCS(=O)(=O)N[C@H]1CCN(C2=NOC(c3ccccc3-c3c(F)cccc3F)C2)C1 (stereo partly drawn) [Example 3, N-{(3S)-1-[5-(2′,6′-difluoro[1,1′-biphenyl]-2-yl)-4,5-dihydro-1,2-oxazol-3-yl]pyrrolidin-3-yl}ethanesulfonamide]	95
CS(=O)(=O)N[C@@H]1CN(C2=NOC(c3ccccc3-c3c(F)cccc3F)C2)CC1(F)F (stereo partly drawn) [Example 4, N-{(3R)-1-[5-(2′,6′-difluoro[1,1′-biphenyl]-2-yl)-4,5-dihydro-1,2-oxazol-3-yl]-4,4-difluoropyrrolidin-3-yl}methanesulfonamide]	104
CS(=O)(=O)N[C@H]1CCCN(C2=NOC(c3ccccc3-c3c(F)cccc3F)C2)CC1 (stereo partly drawn) [Example 5, N-{(4S)-1-[5-(2′,6′-difluoro[1,1′-biphenyl]-2-yl)-4,5-dihydro-1,2-oxazol-3-yl]azepan-4-yl}methanesulfonamide]	106
CS(=O)(=O)N[C@H]1CCCN(C2=NOC(c3ccccc3-c3c(F)cccc3F)C2)C1 (stereo partly drawn) [Example 6, N-{(3S)-1-[5-(2′,6′-difluoro[1,1′-biphenyl]-2-yl)-4,5-dihydro-1,2-oxazol-3-yl]piperidin-3-yl}methanesulfonamide]	98
CS(=O)(=O)NC1CCN(C2=NOC(c3ccccc3-c3c(F)cccc3F)C2)CC1 (stereo not drawn) [Example 7, N-{1-[5-(2′,6′-difluoro[1,1′-biphenyl]-2-yl)-4,5-dihydro-1,2-oxazol-3-yl]piperidin-4-yl}methanesulfonamide]	53
CCS(=O)(=O)N[C@H]1CCN(C2=NOC(c3ccc(C)cc3-c3c(F)cccc3F)C2)C1 (stereo partly drawn) [Example 8, N-{(3S)-1-[5-(2′,6′-difluoro-5-methyl[1,1′-biphenyl]-2-yl)-4,5-dihydro-1,2-oxazol-3-yl]pyrrolidin-3-yl}ethanesulfonamide]	104
CCS(=O)(=O)N[C@H]1CCN(C2=NOC(c3cc(C(F)(F)F)nn3-c3c(F)cccc3F)C2)C1 (stereo partly drawn) [Example 9, N-[(3S)-1-{5-[1-(2,6-difluorophenyl)-3-(trifluoromethyl)-1H-pyrazol-5-yl]-4,5-dihydro-1,2-oxazol-3-yl}pyrrolidin-3-yl]ethanesulfonamide]	13
